Results: US20010048926A1, “SYNTHETIC PEPTIDE VACCINES FOR DENTAL CARIES” (priority 1992, published 2001)

Tests used:
[1] = molecular target: T1, AND peptide construct (Streptococcus mutans serotype c, UniProt P08987); assay: Cross-reactivity ELISA, plates coated with AND peptide construct; type: binding; conditions: day 63 sera; FIG. 4
T1 construct: GGY and AND were 19-mer peptides; purchased Applied Diagnostics, Foster City, Calif; host or cells: chemical solid phase synthesis
Method: (§1) Immunogenicity of Peptides: Sprague Dawley CD strain 43 day-old male rats (Charles River Laboratories) were used for injection. Six groups of 4-5 rats were injected subcutaneously in the vicinity of the salivary glands with 50 μg each of GGY, AND, SAND or CAT peptide constructs, 10 μg of GTF, or sham-immunized with buffer alone. The initial injection included complete Freund adjuvant (CFA; Difco); two subsequent injections at 21-day intervals included incomplete Freund adjuvant. Animals were bled prior to injection and 14-21 days after each injection. Serum from coagulated and centrifuged blood was stored frozen at −20° C. until use.
ELISA: Serum IgG and salivary IgA antibodies were tested by enzyme-linked immunosorbent assay (ELISA). Polystyrene microtiter plates (Flow Laboratories) were coated with […] of each peptide construct or 0.5 μg of S. sobrinus GTF. Antibody activity was then measured by incubation with 1:100 to 1:10^6 dilutions of sera, or 1:4 to 1:32 dilutions of saliva. […] Reactivity was recorded as absorbance (A405 nm) in a micro plate reader (Biotek Instruments). Data are reported as absorbance (A405 nm), reciprocal titer, or as ELISA units (EU) which were calculated relative to the levels of appropriate reference sera or salivas from Sprague Dawley rats thrice immunized with the respective peptide construct. […]

[2] = test system: S. mutans SJ32; assay: Protection experiments: caries assessment (modified Keyes method) after S. mutans infection; type: in vivo, Sprague-Dawley rats
Source text: Experimental Protocol for Protection Experiments: Animals used in the present experiments were derived from germ-free Sprague-Dawley rats that had been reared in the isolator facility of Charles River Laboratories, Wilmington, Mass. (Area 051). […] These rats served as initial breeding stock for dams used in these experiments and were regularly monitored for absence of mutans streptococci. The progeny of the dams used for the present experiments were weaned at approximately 21 days and were subsequently fed high sucrose Diet 2000.
(§2) Two experiments were performed. Groups (n=11-12) of 23-26 day-old rats were subcutaneously (sc) injected in the salivary gland vicinity with (experiment 1) GGY (50 μg), AND (50 μg) or GTF(10 μg), or phosphate buffered saline (control animals), or (experiment 2) GGY (50 ;μg) or PBS. Each antigen was incorporated with complete Freund adjuvant in both experiments. Eight (experiment 1) or 14 (experiment 2) days later, rats were reinjected with PBS or with the same antigen and dose in incomplete Freund adjuvant. Six (experiment 1) or 12 (experiment 2) days after the second injection, animals were bled from the tail vein, and saliva was collected after injection of pilocarpine (1.0 mg/100 g body weight). Fourteen (experiment 1) or 11 (experiment 2) days after the second injection, all rats were orally infected with approximately 10^8 S. mutans for 3 consecutive days. Both experiments were terminated 63 days after initial infection.
Caries assessment: The extent and depth of carious lesions in all rat molar teeth (caries score) were microscopically evaluated by a modified Keyes method as previously described (Taubman et al., J. Immunol. 118:710-720 (1977)). Caries scores were determined separately on smooth and on sulcal dental surfaces.

[3] = test system: inducing peptide construct; assay: ELISA of salivary IgA antibody to the inducing (homologous) peptide construct in immunized rats; type: in vivo, Sprague Dawley rats; conditions: for rats with significant levels of salivary IgA antibody: GGY- and AND-injected rats counted together; for Salivary IgA antibody levels to GGY: pre-infection saliva
Method: as §1
ELISA: Serum IgG and salivary IgA antibodies were tested by enzyme-linked immunosorbent assay (ELISA). Polystyrene microtiter plates (Flow Laboratories) were coated with […] of each peptide construct or 0.5 μg of S. sobrinus GTF. Antibody activity was then measured by incubation with 1:100 to 1:10^6 dilutions of sera, or 1:4 to 1:32 dilutions of saliva. Plates were then developed for IgG antibody rabbit anti-rat IgG followed in sequence by alkaline phosphatase goat anti-rabbit IgG (Biosource Inc.) and p-nitrophenylphosphate (Sigma). A mouse monoclonal reagent to rat α chain (Zymed, South San Francisco, Calif.) was used with biotinylated goat anti-mouse IgG (TAGO, Inc., Burlingame, Calif.) and avidin-alkaline phosphatase (Cappel) to reveal levels of salivary IgA antibody to peptides. Reactivity was recorded as absorbance (A405 nm) in a micro plate reader (Biotek Instruments). Data are reported as absorbance (A405 nm), reciprocal titer, or as ELISA units (EU) which were calculated relative to the levels of appropriate reference sera or salivas from Sprague Dawley rats thrice immunized with the respective peptide construct. Dilutions of 1:12,800 and 1:6,400 (A405 nm approximately 1.0) were considered 100 EU for serum IgG to the GGY and AND constructs, respectively. Dilutions of 1:32 were considered 100 EU for salivary IgA to both GGY and AND constructs.
as §2
Two experiments were performed to measure the effect of immunization with the eight-branched GGY and AND peptide constructs on experimental dental caries in the Sprague-Dawley rat. In the first experiment, groups of rats were immunized with GGY or AND peptide constructs. In the second experiment groups of rats were immunized only with the GGY peptide construct. Pre-infection sera and salivas were collected for antibody measurement in 39 day old rats in experiment 1 (6 days after the second injection) and 51 day old rats in experiment 2 (12 days after the second injection). In the GGY-immunized rat groups, IgG antibody levels to GGY (experiment 1=21.9+17.8 EU; experiment 2=108.0±4.0 EU) were elevated above those of the sham-immunized groups (experiment 1=1.7±0.2 EU; experiment 2=4.0±3.0 EU) in both experiments and reached statistical significance (p<0.002) in experiment 2.

[4] = test system: anti-GGY serum; assay: Epitope mapping by ELISA inhibition, anti-GGY serum on GGY-coated plates; type: binding, rat; conditions: anti-GGY serum preincubated with heptamer or intact peptide; FIG. 8
Method: Epitope Mapping: B cell epitopes were mapped on the GGY and AND peptides by an ELISA inhibition technique. Anti-GGY or anti-AND sera were preincubated with 13 separate heptamers representing the incremental peptide sequence of the respective peptide, or with intact peptide, followed by the conventional ELISA with intact peptide-coated plates. B cell epitopes were indicated by a significant reduction in absorbance.

Sequence: GGYEFLLANDVDNSNPVVQ
- reaction of serum IgG antibody with the AND peptide construct [1]: significant reaction
- mean and median total, smooth surface, and occlusal caries scores vs sham-injected group ([2]; both experiments): lower than the respective scores of the sham-injected group
- Total molar caries scores vs sham-injected groups ([2]; both experiments, p<0.05): significantly lower
- smooth surface caries vs sham-injected group ([2]; experiment 1, GGY p<0.032, GTF p<0.045): Protection was most evident on smooth surfaces
- smooth surface caries vs sham-injected group ([2]; experiment 2, p<0.027): Protection was most evident on smooth surfaces
- protection after infection of rats with cariogenic S. mutans ([2]; summary statement): significant protection
- rats with significant levels of salivary IgA antibody ([3]; day 21 (one injection)): 7/9
- rats with significant levels of salivary IgA antibody ([3]; day 63 (three injections)): 8/9
- Salivary IgA antibody levels to GGY ([3]; protection experiment 1, 39 day old rats): 5.0±2.0 EU
- Salivary IgA antibody levels to GGY ([3]; protection experiment 2, 51 day old rats): 11.7±4.8 EU
- inhibition of GGY antibody binding to intact peptide-coated plates [4]: completely inhibited
